Assay results from ChEMBL document CHEMBL1909569 (Bioorg Med Chem Lett, 2011).
In brackets after ≈: the same amount, converted by molar mass.

Legend:
Assay type in all cases: functional
[1] = tested on: Mycobacterium tuberculosis; test: Antimicrobial activity against non-replicating Mycobacterium tuberculosis after 11 days by luminescence based low oxygen recovery assay; details: 264 h
[2] = tested on: Mycobacterium tuberculosis; test: Antimicrobial activity against replicating Mycobacterium tuberculosis after 8 days by micro plate alamar blue assay; details: 192 h
[3] = tested on: Escherichia coli; test: Antimicrobial activity against wild type Escherichia coli TG2 after 16 to 20 hrs
[4] = tested on: Escherichia coli; test: Antimicrobial activity against wild type Escherichia coli DH5[alpha] after 16 to 20 hrs
[5] = tested on: Escherichia coli; test: Antimicrobial activity against Escherichia coli EC2880 mutant after 16 to 20 hrs

SMILES	MIC90 [1] [µM]	MIC90 [2] [µM]	MIC90 [3] [µM]	MIC90 [4] [µM]	MIC90 [5] [µM]
NNC(=O)c1ccncc1 [ISONIAZID]	> 128	0.39 (≈ 0.0535 µg/mL)	–	–	–
C/C=C/Nc1c(C)c2c3c4c1C(=O)C(=CC4=O)NC(=O)/C(C)=C\C=C\[C@H](C)[C@H](O)[C@@H](C)[C@@H](O)[C@@H](C)[C@H](OC(C)=O)[C@H](C)[C@@H](OC)/C=C/O[C@@](C)(O2)C3=O	18.3 (≈ 13.4 µg/mL)	5.2 (≈ 3.82 µg/mL)	–	–	–
CO[C@H]1/C=C/O[C@@]2(C)Oc3c(C)c(NC4CCCCCC4)c4c(c3C2=O)C(=O)C(/C=N/N2CCN(C)CC2)=C(NC(=O)/C(C)=C\C=C\[C@H](C)[C@H](O)[C@@H](C)[C@@H](O)[C@@H](C)[C@H](OC(C)=O)[C@@H]1C)C4=O	13.7 (≈ 12.6 µg/mL)	3.9 (≈ 3.57 µg/mL)	–	–	–
COc1c(N2C[C@@H]3CCCN[C@@H]3C2)c(F)cc2c(=O)c(C(=O)O)cn(C3CC3)c12 [MOXIFLOXACIN]	4.3 (≈ 1.73 µg/mL)	0.64 (≈ 0.257 µg/mL)	–	–	–
CCNc1c(C)c2c3c4c1C(=O)C(=C(/C=N/N1CCN(C)CC1)C4=O)NC(=O)/C(C)=C\C=C\[C@H](C)[C@H](O)[C@@H](C)[C@@H](O)[C@@H](C)[C@H](OC(C)=O)[C@H](C)[C@@H](OC)/C=C/O[C@@](C)(O2)C3=O	> 18.9	> 4.7	–	–	–
C/C=C/Nc1c(C)c2c3c4c1C(=O)C(=C(/C=N/N1CCN(C)CC1)C4=O)NC(=O)/C(C)=C\C=C\[C@H](C)[C@H](O)[C@@H](C)[C@@H](O)[C@@H](C)[C@H](OC(C)=O)[C@H](C)[C@@H](OC)/C=C/O[C@@](C)(O2)C3=O	> 18.6	> 4.7	–	–	–
CO[C@H]1/C=C/O[C@@]2(C)Oc3c(c4c5c(nn(CCO)c5c3C)C(=CC4=O)NC(=O)/C(C)=C\C=C\[C@H](C)[C@H](O)[C@@H](C)[C@@H](O)[C@@H](C)[C@H](OC(C)=O)[C@@H]1C)C2=O	> 21.7	> 5.4	–	–	–
CONc1c(C)c2c3c4c1C(=O)C(=CC4=O)NC(=O)/C(C)=C\C=C\[C@H](C)[C@H](O)[C@@H](C)[C@@H](O)[C@@H](C)[C@H](OC(C)=O)[C@H](C)[C@@H](OC)/C=C/O[C@@](C)(O2)C3=O	12.5 (≈ 9.06 µg/mL)	3.8 (≈ 2.75 µg/mL)	–	–	–
CCNc1c(C)c2c3c4c(O)c(/C=N/N5CCN(C)CC5)c(c(O)c14)NC(=O)/C(C)=C\C=C\[C@H](C)[C@H](O)[C@@H](C)[C@@H](O)[C@@H](C)[C@H](OC(C)=O)[C@H](C)[C@@H](OC)/C=C/O[C@@](C)(O2)C3=O	> 18.8	> 4.7	–	–	–
CO[C@H]1/C=C/O[C@@]2(C)Oc3c(C)c(NCc4ccccc4)c4c(c3C2=O)C(=O)C(/C=N/N2CCN(C)CC2)=C(NC(=O)/C(C)=C\C=C\[C@H](C)[C@H](O)[C@@H](C)[C@@H](O)[C@@H](C)[C@H](OC(C)=O)[C@@H]1C)C4=O	> 17.6	> 4.4	–	–	–
CO[C@H]1/C=C/O[C@@]2(C)Oc3c(C)c(NCCO)c4c(c3C2=O)C(=O)C=C(NC(=O)/C(C)=C\C=C\[C@H](C)[C@H](O)[C@@H](C)[C@@H](O)[C@@H](C)[C@H](OC(C)=O)[C@@H]1C)C4=O	> 21.7	5.32 (≈ 3.93 µg/mL)	–	–	–
CO[C@H]1/C=C/O[C@@]2(C)Oc3c(C)c(NCCO)c4c(O)c(c(/C=N/N5CCN(C)CC5)c(O)c4c3C2=O)NC(=O)/C(C)=C\C=C\[C@H](C)[C@H](O)[C@@H](C)[C@@H](O)[C@@H](C)[C@H](OC(C)=O)[C@@H]1C	> 18.5	> 4.6	–	–	–
CO[C@H]1/C=C/O[C@@]2(C)Oc3c(C)c(NCc4ccccc4)c4c(O)c(c(/C=N/N5CCN(C)CC5)c(O)c4c3C2=O)NC(=O)/C(C)=C\C=C\[C@H](C)[C@H](O)[C@@H](C)[C@@H](O)[C@@H](C)[C@H](OC(C)=O)[C@@H]1C	> 17.5	> 4.4	–	–	–
CO[C@H]1/C=C/O[C@@]2(C)Oc3c(C)c(NCCO)c4c(c3C2=O)C(=O)C(/C=N/N2CCN(C)CC2)=C(NC(=O)/C(C)=C\C=C\[C@H](C)[C@H](O)[C@@H](C)[C@@H](O)[C@@H](C)[C@H](OC(C)=O)[C@@H]1C)C4=O	> 18.5	> 4.6	–	–	–
CO[C@H]1/C=C/O[C@@]2(C)Oc3c(C)c(NCc4ccccc4)c4c(c3C2=O)C(=O)C=C(NC(=O)/C(C)=C\C=C\[C@H](C)[C@H](O)[C@@H](C)[C@@H](O)[C@@H](C)[C@H](OC(C)=O)[C@@H]1C)C4=O	> 20.4	2.4 (≈ 1.88 µg/mL)	–	–	–
CNc1c(C)c2c3c4c1C(=O)C(=CC4=O)NC(=O)/C(C)=C\C=C\[C@H](C)[C@H](O)[C@@H](C)[C@@H](O)[C@@H](C)[C@H](OC(C)=O)[C@H](C)[C@@H](OC)/C=C/O[C@@](C)(O2)C3=O	20.6 (≈ 14.6 µg/mL)	> 5.6	–	–	–
CO[C@H]1/C=C/O[C@@]2(C)Oc3c(C)c(OS(=O)(=O)c4ccc(C)cc4)c4c(c3C2=O)C(=O)C(/C=N/N2CCN(C)CC2)=C(NC(=O)/C(C)=C\C=C\[C@H](C)[C@H](O)[C@@H](C)[C@@H](O)[C@@H](C)[C@H](OC(C)=O)[C@@H]1C)C4=O	–	–	> 100	> 100	–
CO[C@H]1/C=C/O[C@@]2(C)Oc3c(C)c(O)c4c(O)c(c(/C=N/N5CCN(C)CC5)c(O)c4c3C2=O)NC(=O)/C(C)=C\C=C\[C@H](C)[C@H](O)[C@@H](C)[C@@H](O)[C@@H](C)[C@H](OC(C)=O)[C@@H]1C [RIFAMPIN]	1.9 (≈ 1.56 µg/mL)	0.13 (≈ 0.107 µg/mL)	12.5 (≈ 10.3 µg/mL)	12.5 (≈ 10.3 µg/mL)	0.1 (≈ 0.0823 µg/mL)
C/C=C/Nc1c(C)c2c3c4c(O)c(/C=N/N5CCN(C)CC5)c(c(O)c14)NC(=O)/C(C)=C\C=C\[C@H](C)[C@H](O)[C@@H](C)[C@@H](O)[C@@H](C)[C@H](OC(C)=O)[C@H](C)[C@@H](OC)/C=C/O[C@@](C)(O2)C3=O	> 18.6	> 4.6	–	–	–
CO[C@H]1/C=C/O[C@@]2(C)Oc3c(C)c(NC4CCCCCC4)c4c(O)c(c(/C=N/N5CCN(C)CC5)c(O)c4c3C2=O)NC(=O)/C(C)=C\C=C\[C@H](C)[C@H](O)[C@@H](C)[C@@H](O)[C@@H](C)[C@H](OC(C)=O)[C@@H]1C	> 17.4	3.8 (≈ 3.49 µg/mL)	–	–	–
CCNc1c(C)c2c3c4c1C(=O)C(=CC4=O)NC(=O)/C(C)=C\C=C\[C@H](C)[C@H](O)[C@@H](C)[C@@H](O)[C@@H](C)[C@H](OC(C)=O)[C@H](C)[C@@H](OC)/C=C/O[C@@](C)(O2)C3=O	21.4 (≈ 15.5 µg/mL)	5.5 (≈ 3.98 µg/mL)	–	–	–
O=[N+]([O-])c1cn2c(n1)OC[C@@H](OCc1ccc(OC(F)(F)F)cc1)C2 [PRETOMANID]	2.3 (≈ 0.826 µg/mL)	0.66 (≈ 0.237 µg/mL)	–	–	–
